Experimental data taken from ChEMBL document CHEMBL1201862, “PubChem BioAssay data set” (2004).
Active and inactive are the calls of the source.

Key:
Type in all cases: functional
[1] = molecular target: DNA dC->dU-editing enzyme APOBEC-3G (Homo sapiens, UniProt Q9HC16); experiment: Dose Response confirmation of small molecule APOBEC3G DNA Deaminase Inhibitors via a fluorescence-based single-stranded DNA deaminase assay. [Related pubchem assays (depositor defined):AID493012, AID493028]
[2] = molecular target: DNA dC->dU-editing enzyme APOBEC-3A (Homo sapiens, UniProt P31941); experiment: A3A deaminase inhibition for selectivity – biochemical, dose response (AID 504722)
[3] = molecular target: Lysosomal acid glucosylceramidase (Homo sapiens, UniProt P04062); experiment: Dose response cell-based high throughput screening assay to identify enhancers of beta-glucosidase activity. [Related pubchem assays: 784 ]
[4] = molecular target: Dual specificity protein phosphatase 3 (Homo sapiens, UniProt P51452); experiment: SAR VHR1 Fluorescent Assay for In Vitro dose response studies Set 2. [Related pubchem assays (depositor defined):AID1654, AID1661, AID1878]
[5] = molecular target: T1, Tyrosine-protein phosphatase non-receptor type 7 (Homo sapiens, UniProt P35236); experiment: SAR analysis of chemical inhibitors of HePTP using a Fluorescent assay - Set 2. [Related pubchem assays (depositor defined):AID1059, AID1077, AID1661, AID2085, AID521]
T1 sequence (P35236 whole entry): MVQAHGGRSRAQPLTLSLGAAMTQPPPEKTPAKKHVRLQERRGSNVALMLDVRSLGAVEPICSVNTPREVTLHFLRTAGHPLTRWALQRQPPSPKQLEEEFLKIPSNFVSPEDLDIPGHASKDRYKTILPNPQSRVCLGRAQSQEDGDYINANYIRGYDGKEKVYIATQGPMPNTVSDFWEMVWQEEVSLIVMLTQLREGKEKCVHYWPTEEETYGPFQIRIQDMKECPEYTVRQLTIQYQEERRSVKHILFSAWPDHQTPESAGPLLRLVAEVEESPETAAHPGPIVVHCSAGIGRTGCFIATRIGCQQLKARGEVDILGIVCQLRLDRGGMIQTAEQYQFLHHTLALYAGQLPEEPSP

[6] = molecular target: T2, Neuropeptide Y receptor type 1 (Homo sapiens, UniProt P25929); experiment: Fluorescence-based counterscreen for agonists of NPY-Y2: cell-based high-throughput dose response assay for agonists of NPY-Y1.
T2 sequence (P25929 whole entry): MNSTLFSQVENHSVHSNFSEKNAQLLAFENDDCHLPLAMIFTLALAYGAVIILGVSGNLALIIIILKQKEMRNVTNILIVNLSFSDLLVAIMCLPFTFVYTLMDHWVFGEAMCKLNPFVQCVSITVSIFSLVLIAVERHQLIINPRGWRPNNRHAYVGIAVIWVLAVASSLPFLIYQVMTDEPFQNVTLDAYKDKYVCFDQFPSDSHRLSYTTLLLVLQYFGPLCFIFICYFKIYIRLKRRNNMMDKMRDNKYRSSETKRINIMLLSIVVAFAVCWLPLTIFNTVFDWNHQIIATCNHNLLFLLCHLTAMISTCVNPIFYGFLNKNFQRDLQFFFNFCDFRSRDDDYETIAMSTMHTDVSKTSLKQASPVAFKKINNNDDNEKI

[7] = molecular target: T3, Neuropeptide Y receptor type 2 (Homo sapiens, UniProt P49146); experiment: Fluorescence-based cell-based high-throughput dose response assay for agonists of NPY-Y2. [Related pubchem assays: 1703 (Screening assay (CNGC inhibitors).), 1359 (Screening assay (NPY-Y2 potentiators or agonists).), 1304 (Screening assay (NPY-Y1 potentiators or agonists).), 1710 (Screening assay (NPY-Y2 agonists).), 1791 (Summary AID.)]
T3 sequence (P49146 whole entry): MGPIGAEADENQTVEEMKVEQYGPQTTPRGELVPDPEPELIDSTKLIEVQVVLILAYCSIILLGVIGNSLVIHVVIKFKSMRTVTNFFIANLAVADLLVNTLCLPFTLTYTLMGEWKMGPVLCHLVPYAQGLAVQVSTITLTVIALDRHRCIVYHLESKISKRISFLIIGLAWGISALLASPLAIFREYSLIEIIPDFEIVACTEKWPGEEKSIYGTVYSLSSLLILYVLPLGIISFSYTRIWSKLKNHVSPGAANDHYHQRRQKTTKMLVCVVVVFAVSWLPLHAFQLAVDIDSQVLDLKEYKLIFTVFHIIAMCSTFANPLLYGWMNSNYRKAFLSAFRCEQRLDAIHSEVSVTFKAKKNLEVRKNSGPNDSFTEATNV

HEK293 = experiment: Fluorescence-based counterscreen for potentiators or agonists of NPY-Y2: cell-based high-throughput dose response assay to identify inhibitors of cyclic nucleotide gated ion channel (CNGC) activity. In this assay, the parental HEK293 cell line transfected with a cyclic-nucleotide gated ion channel (CNGC)-based cAMP sensor is used to measure inhibition of isoproterenol-induced CNGC activity by test compound.; conditions: Homo sapiens
[8] = viability loss in THP-1 monocytes – THP-1 cells, cytotoxicity control for Vif-APOBEC3G degradation inhibitor project, dose response (AID 1117359); conditions: THP-1

Chain of Lysosomal acid glucosylceramidase (P04062 whole entry): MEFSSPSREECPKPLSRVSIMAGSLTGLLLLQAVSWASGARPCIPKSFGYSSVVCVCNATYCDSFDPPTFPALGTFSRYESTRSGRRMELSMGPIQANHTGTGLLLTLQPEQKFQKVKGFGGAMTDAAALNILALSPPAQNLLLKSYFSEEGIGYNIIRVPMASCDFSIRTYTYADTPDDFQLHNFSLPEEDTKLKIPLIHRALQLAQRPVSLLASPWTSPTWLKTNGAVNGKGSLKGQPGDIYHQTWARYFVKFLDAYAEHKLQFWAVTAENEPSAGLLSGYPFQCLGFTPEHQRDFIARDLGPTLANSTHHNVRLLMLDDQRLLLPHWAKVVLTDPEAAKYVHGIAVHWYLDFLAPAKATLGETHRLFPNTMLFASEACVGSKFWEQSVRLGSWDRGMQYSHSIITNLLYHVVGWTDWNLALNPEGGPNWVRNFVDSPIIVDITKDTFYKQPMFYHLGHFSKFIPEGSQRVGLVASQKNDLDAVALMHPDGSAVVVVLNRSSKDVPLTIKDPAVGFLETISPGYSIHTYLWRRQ
Chain of DNA dC->dU-editing enzyme APOBEC-3A (P31941 whole entry): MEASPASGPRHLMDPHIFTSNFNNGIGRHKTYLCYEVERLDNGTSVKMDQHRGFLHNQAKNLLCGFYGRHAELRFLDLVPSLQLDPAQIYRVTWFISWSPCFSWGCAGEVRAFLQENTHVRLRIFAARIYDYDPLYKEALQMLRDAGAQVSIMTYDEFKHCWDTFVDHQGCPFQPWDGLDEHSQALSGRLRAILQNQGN
Chain of Dual specificity protein phosphatase 3 (P51452 whole entry): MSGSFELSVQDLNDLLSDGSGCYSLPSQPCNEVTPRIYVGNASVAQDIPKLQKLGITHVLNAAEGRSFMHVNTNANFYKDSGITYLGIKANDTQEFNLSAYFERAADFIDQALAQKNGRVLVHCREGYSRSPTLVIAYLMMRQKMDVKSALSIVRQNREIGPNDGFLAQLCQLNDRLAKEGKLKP
Chain of DNA dC->dU-editing enzyme APOBEC-3G (Q9HC16 whole entry): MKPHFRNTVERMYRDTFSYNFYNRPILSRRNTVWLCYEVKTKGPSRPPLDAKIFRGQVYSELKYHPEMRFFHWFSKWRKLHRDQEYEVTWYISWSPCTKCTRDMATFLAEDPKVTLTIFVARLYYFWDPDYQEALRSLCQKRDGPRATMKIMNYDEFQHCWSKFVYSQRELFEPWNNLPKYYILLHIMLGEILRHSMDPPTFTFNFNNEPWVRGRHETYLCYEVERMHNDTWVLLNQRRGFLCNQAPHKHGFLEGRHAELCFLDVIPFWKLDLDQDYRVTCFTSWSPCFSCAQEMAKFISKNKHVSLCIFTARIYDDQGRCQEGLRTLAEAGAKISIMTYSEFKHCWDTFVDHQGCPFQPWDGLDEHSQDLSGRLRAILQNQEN

## N#Cc1c(S)nc2c(c1-c1cccnc1)CCCC2
[1]
  IC50: 2.72 µM (active)
[2]
  IC50: > 100 µM (inactive)

## Cc1ccc(C)c(N(C)S(=O)(=O)c2cccc3nsnc23)c1
[3]
  EC50: > 50 µM (not active)

## COc1cccc(NC(=O)C2C3C=CC4(O3)C2C(=O)N(C(C)C)C4C(=O)NC2CCCCC2C)c1 (stereo not given)
[3]
  EC50: > 50 µM (not active)

## NS(=O)(=O)c1ccc(NC(=S)N2CCN(Cc3ccccc3)CC2)cc1
[4]
  IC50: 38.1 µM (active)
[5]
  IC50: 49.7 µM (active)

## O=C(N/N=C\c1ccc(Cl)cc1)C1=NOC2COC3(CCN(c4ccc([N+](=O)[O-])cc4)CC3)OCC12 (stereo not given)
[6]
  EC50: > 35.4 µM (not active)
[7]
  EC50: > 35.4 µM (not active)
HEK293
  EC50: > 35.4 µM (not active)
[8]
  CC50: > 40 µM (active)
